One series deals with MB-MDA231 cells. Description: RealTime-Glo MT cell viability assay, MB-MDA231. The series is classed as cell-based. The note with it: human TNBC cell line MB-MDA231, 24 h. On the procedure: (§1) Figure 5 (a) and (b) Analysis of induced Cyp24a1 expression in 4TO7 (a) and 4T1 (b) cells to test for VDR agonism of DK-406 and heterocyclic analogues after 24 h treatment. c-e. Analysis of the cytotoxicity of hybrid compounds after 24 h using the MTGlo assay (see Methods for details) in 4TO7 (c), 4T1 (d) and MDA-MB-231 (e) cells. […] Each condition was compared to control. *: p ≤ 0.05, **: p ≤ 0.01, ***: p ≤ 0.001, ****: p ≤ 0.0001, ns: not significant.
(§2) As previously, we were interested in studying the efficacy of hybrids in models of TNBC. We used the 4T1 cell line[20] as well as the related TNBC cell line 4TO7, which was derived from the same mouse tumor as 4T1 cells in Balb/c mice[33]. 4TO7 cells readily form primary tumors. […] These lines also have the advantage that anti-tumor efficacy studies can be performed in Balb/c mice, which have intact immune systems. Compounds were initially tested for VDR agonist activity in 4TO7 cells by screening induction of the VDR target gene Cyp24a1. […]
(§3) The assay was performed to assess cell viability in order to determine analogue cytotoxicity. […] Luminescence was measured using a 1420 Luminescence Counter Victor Light (PerkinElmer), normalized to control, and plotted. […]

The test system of a further series is 4T1 cells. The experiment in a line: RealTime-Glo MT cell viability assay, 4T1. In kind it is cell-based, mouse. As to conditions: 24 h. On the procedure:
as §1, §2, §3

A further series relates to 4TO7 cells. Description: RealTime-Glo MT cell viability assay, 4TO7. The series is classed as cell-based, mouse. The note with it: 24 h. On the procedure:
as §1, §2, §3

The nature of series [1]: Aqueous solubility after sonication. The series is classed as physicochemical. As to conditions: after sonication for 30 min. An excerpt:
The synthesis of the B-ring series mirrored that of the A-ring series producing B-ring hybrids AM-191 (n = 1, 27a), AM-192 (n = 3, 27b), and AM-193 (n = 5, 27c) in 9 steps (Fig. 3).

The subject of series [2] is 4T1 mouse model of triple negative breast cancer. On the set-up: method as in PMID 28847749. The note with it: aggressive 4T1 mouse model of TNBC; cited from earlier work.

In brackets after ≈: the same amount, converted by molar mass.

Broadly, the solubility is the dissolved amount per volume that the medium holds. Turning to `CCC(CC)(c1ccc(OCCCCCC(=O)NO)cc1)c1ccc(OCC(O)C(C)(C)C)c(C)n1` (centres unmarked) [AM-193], the “cytotoxicity (MT-Glo viability)” value with MB-MDA231 cells was “potency of AM-193 as a cytotoxic agent was also confirmed”; in the series on 4T1 cells, “most potent compound tested”; in the series on 4TO7 cells, “most potent compound tested”. For the same compound, the “potency in MT-Glo assay relative to DK-406” value in the series with 4T1 cells and with 4TO7 cells was “at least tenfold” throughout. In series [1], the “higher solubility in water compared to DK-367” value came to 27%. The same compound had a solubility at 30 min in series [1] (water) of 2.43 µg/mL (≈ 4.85 µM).
As to `CCC(CC)(c1ccc(C(=O)NCCCCCC(=O)NO)cc1)c1ccc(OCC(O)C(C)(C)C)c(C)c1` (centres unmarked) [DK-406], the “tumor growth and metastasis” value in series [2] is “reduced tumor growth and metastasis”.
